Legend:
B. fragilis = conditions: disclosed in WO 97/10225; cited from earlier work

SMILES | melting point [°C] | antibacterial activity against B. fragilis (B. fragilis)
O=C(O)[C@H]1CCCN1C(=O)Cc1ccc(CC(=O)N2CCC[C@@H]2C(=O)O)cc1 | 210 to 214 | –
C[C@@H](CS)C(=O)N1CCC[C@@H]1C(=O)O [1-[(R)3-Mercapto-2-methyl-propionyl]-(R)-pyrrolidine-2-carboxylic acid] | – | antibacterial activity
C[C@H](CS)C(=O)N1CCC[C@@H]1C(=O)O [1-[(S)3-Mercapto-2-methyl-propionyl]-(R)-pyrrolidine-2-carboxylic acid] | – | antibacterial activity

— patent US6740760B2, “D-proline derivatives” (Hoffmann-La Roche Inc., priority 1997, dated 2004)
